We go through nine compounds from patent EP2396020B1, “NOVEL ANTIMICROBIAL PEPTIDES” (Institute Of Organic Chemistry And Biochemistry As CR, …, priority 2009, dated 2010).

Peptide text beside a SMILES is read from it.

Series [1] deals with Pseudomonnas aeruginosa. As to conditions: LB broth, 37°C, 20 h.
Description: (§2) Antimicrobial activity was determined as a quantitative minimum inhibitory concentration (MIC) by observing bacterial growth in the presence of different concentrations of tested peptides. Mid-exponential phase bacteria were added to the solutions of the tested antimicrobial peptide at different concentrations (0.5 to 100 µM) in LB broth in multi-well plates. The plates were incubated at 37°C for 20 h while being continuously shaken in a Bioscreen C instrument (Finland). The absorbance was measured at 540 nm every 15 min and each peptide was tested at least 3 times in duplicate. In the experiments was routinely used 1.2 10^3 - 7.5 10^3 CFU of bacteria. Tetracycline in a concentration range of 0.1 - 50 µM was tested as a standard.
Series [2] relates to Staphylococcus aureus. The following applies: LB broth, 37°C, 20 h.
Description: as §2
The subject of series [3] is Bacillus subtilis. As to conditions: LB broth, 37°C, 20 h.
Description: as §2
Series [4] can be described thus: Determination of hemolytic activity. It is filed as cell-based. The following applies: rat red blood cells (5% suspension), 1 h at 37°C, physiological solution, read-out: hemolytic activity LC50. How it is done: (§1) The peptides in the concentration (1-200 µM) were incubated with rat red blood cells (5%) for 1 h at 37°C in a physiological solution at a final volume of 0.2 ml The samples were then centrifuged for 5 min at 250 g, and the absorbance of the supernatant was determined at 540 nm. Supernatants of red blood cells suspended in physiological solution and in 0.2% TRITON X100 in physiological solution served as controls for zero hemolysis (blank) and 100% hemolysis, respectively.

In series [5] the test system is Escherichia coli. The following applies: LB broth, 37°C, 20 h.
Description: as §2
Series [6] relates to rat red blood cells. Description: Determination of hemolytic activity. As to conditions: rat red blood cells (5%), 1 h at 37°C, physiological solution. It is filed as cell-based. How it is done:
as §1

On to `CC[C@H](C)[C@H](NC(=O)[C@H](CC(C)C)NC(=O)[C@H](Cc1c[nH]cn1)NC(=O)CNC(=O)[C@H](CC(C)C)NC(=O)[C@@H](NC(=O)[C@H](CCCCN)NC(=O)[C@H](CO)NC(=O)[C@H](Cc1c[nH]c2ccccc12)NC(=O)[C@H](CCSC)NC(=O)CN)[C@@H](C)CC)C(=O)N[C@@H](CCCNC(=N)N)C(N)=O` [(1), H-Gly-Met-Trp-Ser-Lys-Ile-Leu-Gly-His-Leu-Ile-Arg-NH2] (H-GMWSKILGHLIR-NH2), for which, in series [1], the “antimicrobial activity MIC P.a.” value came to 45 µM. The “antimicrobial activity MIC S.a.” value in series [2] is on record as 7,4 µM. The “antimicrobial activity MIC B.s.” value in series [3] was 0,7 µM. Besides, the HC50 at 1 h in series [4] came to 80 µM. The “antimicrobial activity MIC E. c.” value in series [5] is 3,8 µM.
Take `CC[C@H](C)[C@H](NC(=O)[C@H](CC(C)C)NC(=O)[C@H](Cc1c[nH]cn1)NC(=O)CNC(=O)[C@H](CC(C)C)NC(=O)[C@@H](NC(=O)[C@H](CCCCN)NC(=O)[C@H](CCCCN)NC(=O)[C@H](Cc1c[nH]c2ccccc12)NC(=O)[C@H](CCSC)NC(=O)CN)[C@@H](C)CC)C(=O)N[C@@H](CCCNC(=N)N)C(N)=O` [(1-A/1), H-Gly-Met-Trp-Lys-Lys-Ile-Leu-Gly-His-Leu-Ile-Arg-NH2] (H-GMWKKILGHLIR-NH2): the “antimicrobial activity MIC P.a.” value in series [1] is 12,5 µM. Also, in series [2], the “antimicrobial activity MIC S.a.” value is given as 6,0 µM. In addition, the “antimicrobial activity MIC B.s.” value in series [3] is listed as 1,1 µM. For the same compound, the HC50 at 1 h in series [4] came to 93 µM. Also, in series [5], the “antimicrobial activity MIC E. c.” value is reported as 1,8 µM.
For the compound `CC[C@H](C)[C@H](NC(=O)[C@H](CCCCN)NC(=O)[C@H](CO)NC(=O)[C@H](Cc1c[nH]c2ccccc12)NC(=O)[C@H](CCSC)NC(=O)CN)C(=O)N[C@@H](CC(C)C)C(=O)NCC(=O)N[C@@H](Cc1c[nH]cn1)C(=O)N[C@@H](CC(C)C)C(=O)N[C@@H](CCCCN)C(=O)N[C@@H](CCCNC(=N)N)C(N)=O` [(1-A/2), H-Gly-Met-Trp-Ser-Lys-Ile-Leu-Gly-His-Leu-Lys-Arg-NH2] (H-GMWSKILGHLKR-NH2), the “antimicrobial activity MIC P.a.” value in series [1] was determined as 90 µM. Besides, in series [2], the “antimicrobial activity MIC S.a.” value is reported as 100 µM. Further, the “antimicrobial activity MIC B.s.” value in series [3] is reported as 2,2 µM. In addition, in series [4], the HC50 at 1 h is above 200 µM. In series [5], the “antimicrobial activity MIC E. c.” value worked out at 28 µM.
On to `CC[C@H](C)[C@H](NC(=O)[C@H](CC(C)C)NC(=O)[C@H](Cc1c[nH]cn1)NC(=O)CNC(=O)[C@H](CC(C)C)NC(=O)[C@@H](NC(=O)[C@H](CCCCN)NC(=O)[C@H](CO)NC(=O)[C@H](Cc1c[nH]c2ccccc12)NC(=O)[C@H](CCSC)NC(=O)CN)[C@@H](C)CC)C(=O)N[C@@H](CCCCN)C(N)=O` [(1-A/3), H-Gly-Met-Trp-Ser-Lys-Ile-Leu-Gly-His-Leu-Ile-Lys-NH2] (H-GMWSKILGHLIK-NH2), for which the “antimicrobial activity MIC P.a.” value in series [1] was found to be 50 µM. Besides, the “antimicrobial activity MIC S.a.” value in series [2] is reported as 12,5 µM. The “antimicrobial activity MIC B.s.” value in series [3] was 0,75 µM. Further, the HC50 at 1 h in series [4] came to 111 µM. Further, the “antimicrobial activity MIC E. c.” value in series [5] is 6.0 µM.
On to `CC[C@H](C)[C@H](NC(=O)[C@H](CC(C)C)NC(=O)[C@H](CCCCN)NC(=O)CNC(=O)[C@H](CC(C)C)NC(=O)[C@@H](NC(=O)[C@H](CCCCN)NC(=O)[C@H](CCCCN)NC(=O)[C@H](Cc1c[nH]c2ccccc12)NC(=O)[C@H](CCCCN)NC(=O)CN)[C@@H](C)CC)C(=O)N[C@@H](CCCNC(=N)N)C(N)=O` [(1-A/4), H-Gly-Lys-Trp-Lys-Lys-Ile-Leu-Gly-Lys-Leu-Ile-Arg-NH2] (H-GKWKKILGKLIR-NH2), for which, in series [1], the “antimicrobial activity MIC P.a.” value was 14,2 µM. Also, the “antimicrobial activity MIC S.a.” value in series [2] is on record as 60,0 µM. Also, in series [3], the “antimicrobial activity MIC B.s.” value is 1,3 µM. In addition, the HC50 at 1 h in series [4] was above 200 µM. Also, the “antimicrobial activity MIC E. c.” value in series [5] was 1,8 µM.
With `CC[C@H](C)[C@H](NC(=O)[C@H](Cc1c[nH]cn1)NC(=O)[C@H](CCCCN)NC(=O)[C@H](CC(C)C)NC(=O)[C@H](CC(C)C)NC(=O)[C@H](CO)NC(=O)[C@H](CCSC)NC(=O)[C@H](Cc1c[nH]c2ccccc12)NC(=O)[C@H](CCCCN)NC(=O)CN)C(=O)N[C@@H](CC(C)C)C(=O)N[C@@H](CCCCN)C(N)=O` [(2), H-Gly-Lys-Trp-Met-Ser-Leu-Leu-Lys-His-Ile-Leu-Lys-NH2] (H-GKWMSLLKHILK-NH2), in series [1], the “antimicrobial activity MIC P.a.” value is 33 µM. The “antimicrobial activity MIC S.a.” value in series [2] is recorded as 7,5 µM. In series [3], the “antimicrobial activity MIC B.s.” value is reported as 0,8 µM. The HC50 at 1 h in series [4] was 80 µM. For the same compound, the “antimicrobial activity MIC E. c.” value in series [5] is reported as 2,2 µM.
In the case of `CC[C@H](C)[C@H](NC(=O)[C@H](Cc1c[nH]cn1)NC(=O)[C@H](CCCCN)NC(=O)[C@H](CC(C)C)NC(=O)[C@H](CC(C)C)NC(=O)[C@H](CO)NC(=O)[C@H](CCCCN)NC(=O)[C@H](Cc1c[nH]c2ccccc12)NC(=O)[C@H](CCCCN)NC(=O)CN)C(=O)N[C@@H](CC(C)C)C(=O)N[C@@H](CCCCN)C(N)=O` [(2-A/1), H-Gly-Lys-Trp-Lys-Ser-Leu-Leu-Lys-His-Ile-Leu-Lys-NH2] (H-GKWKSLLKHILK-NH2), in series [1], the “antimicrobial activity MIC P.a.” value was 12,5 µM. Besides, the “antimicrobial activity MIC S.a.” value in series [2] was found to be 25 µM. Further, the “antimicrobial activity MIC B.s.” value in series [3] is given as 1,5 µM. For the same compound, the HC50 at 1 h in series [4] was found to be 95 µM. In addition, the “antimicrobial activity MIC E. c.” value in series [5] was 3 µM.
Take `CC[C@H](C)[C@H](NC(=O)[C@H](Cc1c[nH]cn1)NC(=O)[C@H](CCCCN)NC(=O)[C@H](CC(C)C)NC(=O)[C@H](CC(C)C)NC(=O)[C@H](CCCCN)NC(=O)[C@H](CCSC)NC(=O)[C@H](Cc1c[nH]c2ccccc12)NC(=O)[C@H](CCCCN)NC(=O)CN)C(=O)N[C@@H](CC(C)C)C(=O)N[C@@H](CCCCN)C(N)=O` [(2-A/2), H-Gly-Lys-Trp-Met-Lys-Leu-Leu-Lys-His-Ile-Leu-Lys-NH2] (H-GKWMKLLKHILK-NH2): the “antimicrobial activity MIC P.a.” value in series [1] was 10,7 µM. Moreover, the “antimicrobial activity MIC S.a.” value in series [2] is given as 4,5 µM. Besides, the “antimicrobial activity MIC B.s.” value in series [3] was 0,8 µM. For the same compound, the “hemolytic activity LC50” value in series [6] is 87,5 µM. Also, in series [5], the “antimicrobial activity MIC E. c.” value is 2,5 µM.
Take `CC[C@H](C)[C@H](NC(=O)[C@H](CCCCN)NC(=O)[C@H](CCCCN)NC(=O)[C@H](CC(C)C)NC(=O)[C@H](CC(C)C)NC(=O)[C@H](CO)NC(=O)[C@H](CCSC)NC(=O)[C@H](Cc1c[nH]c2ccccc12)NC(=O)[C@H](CCCCN)NC(=O)CN)C(=O)N[C@@H](CC(C)C)C(=O)N[C@@H](CCCCN)C(N)=O` [(2-A/3), H-Gly-Lys-Trp-Met-Ser-Leu-Leu-Lys-Lys-Ile-Leu-Lys-NH2] (H-GKWMSLLKKILK-NH2): the “antimicrobial activity MIC P.a.” value in series [1] is recorded as 13,8 µM. Moreover, in series [2], the “antimicrobial activity MIC S.a.” value was 6,3 µM. Further, in series [3], the “antimicrobial activity MIC B.s.” value was 1,2 µM. Also, the HC50 at 1 h in series [4] stood at 126 µM. In series [5], the “antimicrobial activity MIC E. c.” value is on record as 2,7 µM.
